For this assay, the target named is PI3KC2α Δ1-298 (Homo sapiens (Human), UniProt O00443). The assay is described as follows: ADP-Glo kinase assay with purified PI3KC2α Δ1-298. The format is biochemical. Particulars: for IC50: read-out: IC50 (PI3KC2α; ADP-Glo™ assay). As for the experimental part:
Previous studies have shown that PI3KC2α can utilize phosphatidylinositol (PI) or phosphatidylinositol 4-phosphate [PI(4)P] to produce PI(3)P or PI(3,4)P2 respectively but with a preference for PI(3,4)P2 production. To verify that purified PI3KC2α Δ1-298 is active, a radioactive kinase assay was performed with PI as a substrate and different amounts of purified PI3KC2α Δ1-298. The lipid product [PI(3)P] was separated on TLC plates, and the PI(3)P signal was correlated with the amount of PI3KC2α used (FIG. 4A). […] After having confirmed the activity of purified PI3KC2α Δ1-298, an assay suitable for high content screens in multiwell format (ADP-Glo™ assay) was established. The ADP-Glo™ assay has been used for universal detection of ATP hydrolysis. This assay measures ATP hydrolysis occurring during a kinase reaction. For detection, generated ADP is re-converted into ATP with the […] and converted into light by the Ultra-Glo™ Luciferase reagent. The luminescent signal reports kinase activity (FIG. 4B).
The ADP-Glo™ assay was first used to determine the linear correlation range of signal with different amounts of kinase, and then to assess the Kms for ATP and for PI. […] Further optimization of this assay allowed us to carry out medium-to-high throughput screening using low amounts of purified enzyme (at fixed concentrations of: ATP=40 μM, PI=200 μM, PI3KC2α A1−298=10 ng/μl).
Primary screens were performed using the ADP-Glo™ assay in a 384-well format. 37, 224 small molecules were screened for their ability to inhibit kinase activity of PI3KC2α Δ1-298. The concentration of each compound used in the primary screens was 10 μM. Kinase incubations with ATP but without PI were used as negative control samples. This primary screen turned out to be robust with an average z′ factor of 0.57, and therefore judged as successful.
ADP-Glo kinase assay was performed as described by the manufacturer's protocol. Briefly, the kinase assay was performed with a […] of liver PI/ATP/purified PI3KC2α for 20 min in kinase reaction buffer described above. To deplete the remaining ATP from the reaction, 5 μl of […] was added to the kinase reaction mixture and incubated for 40 min. For detection, the generated ADP is re-converted into ATP and converted into light by the Ultra-Glo™ luciferase in kinase detection reagent. The luminescent signal positively correlates with kinase activity. All reactions are performed in Corning® 384 well-white plates.
On the technique in general: In ADP-Glo the light output rises with the ADP produced.

Molecules are shown by their SMILES.

Chain of PI3KC2α Δ1-298 (O00443 299-1686): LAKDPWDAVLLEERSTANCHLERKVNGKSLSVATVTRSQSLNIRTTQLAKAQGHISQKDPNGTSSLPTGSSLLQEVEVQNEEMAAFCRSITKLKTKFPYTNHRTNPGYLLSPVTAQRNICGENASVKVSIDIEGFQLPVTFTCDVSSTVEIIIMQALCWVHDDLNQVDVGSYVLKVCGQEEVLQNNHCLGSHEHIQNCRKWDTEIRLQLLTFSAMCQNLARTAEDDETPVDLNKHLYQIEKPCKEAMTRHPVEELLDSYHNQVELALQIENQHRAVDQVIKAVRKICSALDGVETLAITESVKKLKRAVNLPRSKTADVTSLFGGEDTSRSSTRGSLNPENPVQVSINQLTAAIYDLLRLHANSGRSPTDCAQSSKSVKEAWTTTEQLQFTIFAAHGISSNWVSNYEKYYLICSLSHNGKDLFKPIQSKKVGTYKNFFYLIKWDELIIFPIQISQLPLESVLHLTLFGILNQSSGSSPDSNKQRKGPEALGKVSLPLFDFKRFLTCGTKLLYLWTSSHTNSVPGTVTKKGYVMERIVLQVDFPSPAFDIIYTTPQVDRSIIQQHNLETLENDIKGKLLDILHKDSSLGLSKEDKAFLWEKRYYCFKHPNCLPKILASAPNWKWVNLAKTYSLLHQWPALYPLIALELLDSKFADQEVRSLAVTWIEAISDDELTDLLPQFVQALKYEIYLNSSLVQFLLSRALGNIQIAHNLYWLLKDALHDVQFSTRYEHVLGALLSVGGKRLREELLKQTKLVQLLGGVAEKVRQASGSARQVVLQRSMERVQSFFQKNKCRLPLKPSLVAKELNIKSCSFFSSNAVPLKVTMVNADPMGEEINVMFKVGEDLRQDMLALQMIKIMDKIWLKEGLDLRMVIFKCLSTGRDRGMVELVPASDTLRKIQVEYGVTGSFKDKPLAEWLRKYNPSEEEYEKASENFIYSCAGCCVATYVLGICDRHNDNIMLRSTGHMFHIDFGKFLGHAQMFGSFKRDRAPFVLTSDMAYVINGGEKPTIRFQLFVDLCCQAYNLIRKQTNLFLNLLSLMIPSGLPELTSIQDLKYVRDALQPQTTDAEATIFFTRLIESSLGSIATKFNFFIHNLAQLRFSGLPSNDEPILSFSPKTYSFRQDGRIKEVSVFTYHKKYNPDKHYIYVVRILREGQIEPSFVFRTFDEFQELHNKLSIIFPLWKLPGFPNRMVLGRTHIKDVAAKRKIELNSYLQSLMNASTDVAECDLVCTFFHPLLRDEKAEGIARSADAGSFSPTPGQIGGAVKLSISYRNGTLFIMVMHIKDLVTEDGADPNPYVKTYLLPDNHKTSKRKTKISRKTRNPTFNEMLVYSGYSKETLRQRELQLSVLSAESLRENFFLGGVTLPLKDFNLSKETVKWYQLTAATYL

For orientation: IC50 means the midpoint of a concentration-inhibition curve. On to `O=c1c2nccnc2nc(SCc2nc3ccccc3[nH]2)n1[C@@H]1C[C@H]1c1ccccc1` (relative stereo) [Example Compound 99, trans-2-(((1H-Benzo[d]imidazol-2-yl)methyl)thio)-3-(2-phenylcyclopropyl)pteridin-4(3H)-one], for which the IC50 amounted to 1800 nM.

In the case of `O=C(CSc1nc2nccnc2c(=O)n1CCc1ccccc1)Nc1nc(-c2cccc(O)c2)cs1` [Example Compound 1, N-(4-(3-Hydroxyphenyl)thiazol-2-yl)-2-((4-oxo-3-phenethyl-3,4-dihydropteridin-2-yl)thio)acetamide], the IC50 was 120 nM.

`CS(=O)(=O)Nc1ccc(-c2csc(NC(=O)CSc3nc4nccnc4c(=O)n3CCc3ccccc3)n2)cc1` [Example Compound 2, N-(4-(4-(Methylsulfonamido)phenyl)thiazol-2-yl)-2-((4-oxo-3-phenethyl-3,4-dihydropteridin-2-yl)thio)acetamide]: the 50% inhibitory concentration (IC50) amounted to 1700 nM.

In the case of `O=C(CSc1nc2nccnc2c(=O)n1CCc1cccc(F)c1)Nc1ncco1` [Example Compound 3, 2-((3-(3-Fluorophenethyl)-4-oxo-3,4-dihydropteridin-2-yl)thio)-N-(oxazol-2-yl)acetamide], the IC50 came to 2100 nM.

Regarding `O=C(CSc1nc2nccnc2c(=O)n1CCc1cccc(F)c1)Nc1nccs1` [Example Compound 4, 2-((3-(3-Fluorophenethyl)-4-oxo-3,4-dihydropteridin-2-yl)thio)-N-(thiazol-2-yl)acetamide], the IC50 is 840 nM.

For the compound `Cc1nnc(NC(=O)CSc2nc3nccnc3c(=O)n2CCc2cccc(F)c2)s1` [Example Compound 5, 2-((3-(3-Fluorophenethyl)-4-oxo-3,4-dihydropteridin-2-yl)thio)-N-(5-methyl-1,3,4-thiadiazol-2-yl)acetamide], the IC50 amounted to 6300 nM.

For `O=C(CSc1nc2nccnc2c(=O)n1CCc1cccc(F)c1)Nc1nc(-c2ccc(F)cc2)cs1` [Example Compound 6, 2-((3-(3-Fluorophenethyl)-4-oxo-3,4-dihydropteridin-2-yl)thio)-N-(4-(4-fluorophenyl)thiazol-2-yl)acetamide], the “PI3KC2α inhibitory activity (in words, SAR)” value (from here on “PI3KC2α inhibitory activity”) was “functional compounds” and the IC50 was 610 nM.

As to `O=C(CSc1nc2nccnc2c(=O)n1CCc1cccc(F)c1)NC1CC1` [Example Compound 7, N-Cyclopropyl-2-((3-(3-fluorophenethyl)-4-oxo-3,4-dihydropteridin-2-yl)thio)acetamide], the IC50 amounted to 7100 nM.

As to `O=C(CSc1nc2nccnc2c(=O)n1CCc1cccs1)Nc1nccs1` [Example Compound 8, 2-((4-Oxo-3-(2-(thiophen-2-yl)ethyl)-3,4-dihydropteridin-2-yl)thio)-N-(thiazol-2-yl)acetamide], the half-inhibitory concentration (IC50) worked out at 1100 nM.

For the compound `O=C(CSc1nc2nccnc2c(=O)n1CCc1cccc(C(F)(F)F)c1)Nc1nccs1` [Example Compound 9, 2-((4-Oxo-3-(3-(trifluoromethyl)phenethyl)-3,4-dihydropteridin-2-yl)thio)-N-(thiazol-2-yl)acetamide], the IC50 came out at 1500 nM.

Turning to `O=C(CSc1nc2nccnc2c(=O)n1CCc1ccccc1)Nc1nc(-c2ccccc2)cs1` [Example Compound 10, 2-((4-Oxo-3-phenethyl-3,4-dihydropteridin-2-yl)thio)-N-(4-phenylthiazol-2-yl)acetamide], the “PI3KC2α inhibitory activity” value is listed as “functional compounds” and the IC50 turned out to be 1260 nM.

For the compound `CS(=O)(=O)Nc1cccc(-c2csc(NC(=O)CSc3nc4nccnc4c(=O)n3CCc3ccccc3)n2)c1` [Example Compound 12, N-(4-(3-(Methylsulfonamido)phenyl)thiazol-2-yl)-2-((4-oxo-3-phenethyl-3,4-dihydropteridin-2-yl)thio)acetamide], the IC50 amounted to 130 nM.

Regarding `O=C(CSc1nc2cccnc2c(=O)n1CCc1ccccc1)Nc1nccs1` [Example Compound 13, 2-((4-Oxo-3-phenethyl-3,4-dihydropyrido[3,2-d]pyrimidin-2-yl)thio)-N-(thiazol-2-yl)acetamide], the IC50 came to 13000 nM.

With `O=C(CSc1nc2nccnc2c(=O)n1CCc1ccccc1)Nc1ncco1` [Example Compound 14, N-(Oxazol-2-yl)-2-((4-oxo-3-phenethyl-3,4-dihydropteridin-2-yl)thio)acetamide], the IC50 is 2800 nM.

Turning to `O=C(CSc1nc2nccnc2c(=O)n1CCc1ccccc1)Nc1ccccc1F` [Example Compound 15, N-(2-Fluorophenyl)-2-((4-oxo-3-phenethyl-3,4-dihydropteridin-2-yl)thio)acetamide], the IC50 worked out at 6000 nM.

Regarding `CC(Sc1nc2nccnc2c(=O)n1CCc1cccc(F)c1)C(=O)Nc1nccs1` (stereo not shown) [Example Compound 16, 2-((3-(3-Fluorophenethyl)-4-oxo-3,4-dihydropteridin-2-yl)thio)-N-(thiazol-2-yl)propanamide], the “PI3KC2α inhibitory activity” value is listed as “did not disrupt the activity” and the IC50 was 5200 nM.

`O=C(CSc1nc2nccnc2c(=O)n1-c1cccc(-c2ccccc2)c1)Nc1nccs1` [Example Compound 17, 2-((3-([1,1′-Biphenyl]-3-yl)-4-oxo-3,4-dihydropteridin-2-yl)thio)-N-(thiazol-2-yl)acetamide]: the IC50 is 9000 nM.

For the compound `O=C(CSc1nc2nccnc2c(=O)n1CC(F)(F)c1ccccc1)Nc1nccs1` [Example Compound 18, 2-((3-(2,2-Difluoro-2-phenylethyl)-4-oxo-3,4-dihydropteridin-2-yl)thio)-N-(thiazol-2-yl)acetamide], the half-maximal inhibitory concentration (IC50) turned out to be 2300 nM.

Consider `O=C(CSc1nc2nccnc2c(=O)n1C1CCc2ccccc21)Nc1nccs1` (stereo not shown) [Example Compound 19, 2-((3-(2,3-Dihydro-1H-inden-1-yl)-4-oxo-3,4-dihydropteridin-2-yl)thio)-N-(thiazol-2-yl)acetamide], for which the IC50 is 1600 nM.

Take `O=C(CSc1nc2nccnc2c(=O)n1CCc1ccccc1)Nc1ncccn1` [Example Compound 20, 2-((4-Oxo-3-phenethyl-3,4-dihydropteridin-2-yl)thio)-N-(pyrimidin-2-yl)acetamide]: the IC50 was found to be 2000 nM.

For `O=C(CSc1nc2nccnc2c(=O)n1C1CC1c1ccccc1)Nc1nccs1` (stereo not shown) [Example Compound 21, 2-((4-Oxo-3-(2-phenylcyclopropyl)-3,4-dihydropteridin-2-yl)thio)-N-(thiazol-2-yl)acetamide], the IC50 was 12000 nM.

On to `O=C(CSc1nc2nccnc2c(=O)n1CCc1ccccc1)Nc1ccccc1` [Example Compound 22, 2-((4-Oxo-3-phenethyl-3,4-dihydropteridin-2-yl)thio)-N-phenylacetamide], for which the IC50 was 3300 nM.

Take `O=C(CSc1nc2nccnc2c(=O)n1CCc1ccccc1)Nc1nc(-c2ccsc2)cs1` [Example Compound 23, 2-((4-Oxo-3-phenethyl-3,4-dihydropteridin-2-yl)thio)-N-(4-(thiophen-3-yl)thiazol-2-yl)acetamide]: the IC50 was 760 nM.

Take `COC(=O)Cc1csc(NC(=O)CSc2nc3nccnc3c(=O)n2CCc2ccccc2)n1` [Example Compound 24, Methyl 2-(2-(2-((4-oxo-3-phenethyl-3,4-dihydropteridin-2-yl)thio)acetamido)thiazol-4-yl)acetate]: the IC50 is 2200 nM.

For `O=C(CSc1nc2nccnc2c(=O)n1CCc1ccccc1)Nc1nc(C(=O)N2CCOCC2)cs1` [Example Compound 25, N-(4-(Morpholine-4-carbonyl)thiazol-2-yl)-2-((4-oxo-3-phenethyl-3,4-dihydropteridin-2-yl)thio)acetamide], the IC50 stood at 3500 nM.

Regarding `O=C(CSc1nc2nccnc2c(=O)n1CCc1ccccc1)Nc1nc(-c2cccc(F)c2)cs1` [Example Compound 26, N-(4-(3-Fluorophenyl)thiazol-2-yl)-2-((4-oxo-3-phenethyl-3,4-dihydropteridin-2-yl)thio)acetamide], the concentration for half-maximal inhibition (IC50) came to 1500 nM.

Consider `O=C(CSc1nc2nccnc2c(=O)n1CCc1ccccc1)Nc1cc(-c2ccccc2)cs1` [Example Compound 27, 2-((4-Oxo-3-phenethyl-3,4-dihydropteridin-2-yl)thio)-N-(4-phenylthiophen-2-yl)acetamide], for which the IC50 is 17200 nM.

On to `N#Cc1ccc(NC(=O)CSc2nc3nccnc3c(=O)n2CCc2ccccc2)nc1` [Example Compound 28, N-(5-Cyanopyridin-2-yl)-2-((4-oxo-3-phenethyl-3,4-dihydropteridin-2-yl)thio)acetamide], for which the IC50 was 7600 nM.

The values above are taken from patent US12247029B2, “Heterocyclic compounds as class II phosphoinositide 3-kinase inhibitors” (Forschungsverbund Berlin e.V., priority 2018, dated 2025).
